Laboratory results as given in BindingDB's records for doi:10.7270/Q2Z31X1B (Nmmlsc, 2007).
pKi: −log10 of the molar value.

molecular target: T1, fMet-Leu-Phe receptor (Homo sapiens, UniProt P21462); assay: human FPR1 ligand displacement potency – cell-based, flow cytometry, Ki from IC50, dose response (AID 724)
T1 sequence (P21462 whole entry): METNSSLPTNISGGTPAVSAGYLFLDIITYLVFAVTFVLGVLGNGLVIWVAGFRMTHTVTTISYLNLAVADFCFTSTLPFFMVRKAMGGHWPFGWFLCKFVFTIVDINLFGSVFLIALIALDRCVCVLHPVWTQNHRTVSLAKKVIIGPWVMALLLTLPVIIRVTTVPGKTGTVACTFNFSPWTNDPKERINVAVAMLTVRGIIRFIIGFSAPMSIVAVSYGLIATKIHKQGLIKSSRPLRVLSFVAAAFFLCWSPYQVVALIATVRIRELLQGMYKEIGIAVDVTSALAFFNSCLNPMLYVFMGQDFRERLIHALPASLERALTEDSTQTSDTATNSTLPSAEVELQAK

Structure (SMILES)	pKi
CC(=O)C1C(=O)C(=O)N(CCc2c(C)[nH]c3ccccc23)C1c1cccc(F)c1 (centres undefined)	4.95
COc1ccc(C(=O)C2C(=O)C(=O)N(CCc3c[nH]c4ccccc34)C2c2ccc(C(C)C)cc2)cc1 (centres undefined)	< 4.35
COc1ccc(C2C(C(=O)c3cccs3)C(=O)C(=O)N2CCCn2ccnc2)cc1 (centres undefined) [1-(3-imidazol-1-ylpropyl)-2-(4-methoxyphenyl)-4-oxidanyl-3-thiophen-2-ylcarbonyl-2H-pyrrol-5-one]	5.33
COc1cc(C2C(C(C)=O)C(=O)C(=O)N2c2ccc(Br)cc2)ccc1O (centres undefined) [1-(4-bromophenyl)-3-ethanoyl-2-(3-methoxy-4-oxidanyl-phenyl)-4-oxidanyl-2H-pyrrol-5-one]	< 4.35
COc1ccc(C2C(C(=O)c3cccs3)C(=O)C(=O)N2CCN2CCOCC2)c(OC)c1 (centres undefined) [2-(2,4-dimethoxyphenyl)-1-(2-morpholin-4-ylethyl)-4-oxidanyl-3-thiophen-2-ylcarbonyl-2H-pyrrol-5-one]	5.54
COc1ccc(C2C(C(=O)c3ccco3)C(=O)C(=O)N2CCCN2CCOCC2)cc1OC (centres undefined) [2-(3,4-dimethoxyphenyl)-3-(furan-2-carbonyl)-4-hydroxy-1-(3-morpholin-4-ylpropyl)-2H-pyrrol-5-one]	< 4.35
O=C1C(=O)N(CCc2ccccc2)C(c2ccc(Cl)cc2)C1C(=O)c1cccs1 (centres undefined) [2-(4-chlorophenyl)-4-hydroxy-1-(2-phenylethyl)-3-(thiophene-2-carbonyl)-2H-pyrrol-5-one]	5.16
COc1cc(C2C(C(=O)c3cc4ccccc4o3)C(=O)C(=O)N2CCN(C)C)ccc1O (centres undefined) [3-(1-benzofuran-2-carbonyl)-1-[2-(dimethylamino)ethyl]-4-hydroxy-2-(4-hydroxy-3-methoxyphenyl)-2H-pyrrol-5-one]	< 4.35
COc1ccc(C2C(C(=O)c3cc4ccccc4o3)C(=O)C(=O)N2CCN(C)C)cc1OC (centres undefined) [3-(1-benzofuran-2-carbonyl)-2-(3,4-dimethoxyphenyl)-1-[2-(dimethylamino)ethyl]-4-hydroxy-2H-pyrrol-5-one]	< 4.35
O=C1C(=O)N(CCCn2ccnc2)C(c2cccnc2)C1C(=O)c1cc2ccccc2o1 (centres undefined) [3-(1-benzofuran-2-carbonyl)-4-hydroxy-1-(3-imidazol-1-ylpropyl)-2-pyridin-3-yl-2H-pyrrol-5-one]	< 4.35
O=C1C(=O)N(CCCN2CCOCC2)C(c2cccnc2)C1C(=O)c1cc2ccccc2o1 (centres undefined) [3-(1-benzofuran-2-carbonyl)-4-hydroxy-1-(3-morpholin-4-ylpropyl)-2-pyridin-3-yl-2H-pyrrol-5-one]	< 4.35
O=C1C(=O)N(CCCn2ccnc2)C(c2cccnc2)C1C(=O)c1ccco1 (centres undefined) [3-(furan-2-carbonyl)-4-hydroxy-1-(3-imidazol-1-ylpropyl)-2-pyridin-3-yl-2H-pyrrol-5-one]	< 4.35
COc1ccc(OC)c(C2C(C(=O)c3ccc(C)cc3)C(=O)C(=O)N2CCC(=O)O)c1 (centres undefined) [3-[(3E)-2-(2,5-dimethoxyphenyl)-3-[(4-methylphenyl)-oxidanyl-methylidene]-4,5-bis(oxidanylidene)pyrrolidin-1-yl]propanoic acid]	< 4.35
O=C(O)CCCN1C(=O)C(=O)C(C(=O)c2ccccc2)C1/C=C/c1ccccc1 (centres undefined) [4-[(4E)-2,3-bis(oxidanylidene)-4-[oxidanyl(phenyl)methylidene]-5-[(E)-2-phenylethenyl]pyrrolidin-1-yl]butanoic acid]	< 4.35
COc1ccc(C2C(C(=O)c3ccco3)C(=O)C(=O)N2CCN2CCOCC2)c(OC)c1 (centres undefined) [5-(2,4-dimethoxyphenyl)-4-(furan-2-carbonyl)-3-hydroxy-1-(2-morpholinoethyl)-1H-pyrrol-2(5H)-one]	5.19
COc1ccc(OC)c(C2C(C(=O)c3ccccc3)C(=O)C(=O)N2c2ccc(C)c(Cl)c2)c1 (centres undefined) [(4E)-1-(3-chloranyl-4-methyl-phenyl)-5-(2,5-dimethoxyphenyl)-4-[oxidanyl(phenyl)methylidene]pyrrolidine-2,3-dione]	4.77
COc1ccc(C2C(C(=O)c3ccccc3)C(=O)C(=O)N2c2cccc(Cl)c2)c(OC)c1 (centres undefined) [(4E)-1-(3-chlorophenyl)-5-(2,4-dimethoxyphenyl)-4-[hydroxy(phenyl)methylene]pyrrolidine-2,3-quinone]	4.51

Structure (SMILES)	pKi
COCCCN1C(=O)C(=O)C(C(=O)c2ccccc2)C1c1ccc(C(C)C)cc1 (centres undefined) [(4E)-1-(3-methoxypropyl)-4-[oxidanyl(phenyl)methylidene]-5-(4-propan-2-ylphenyl)pyrrolidine-2,3-dione]	4.69
Cc1ccc(C(=O)C2C(=O)C(=O)N(c3nnc(C)s3)C2c2ccc(C(C)C)cc2)cc1 (centres undefined) [(4E)-4-[(4-methylphenyl)-oxidanyl-methylidene]-1-(5-methyl-1,3,4-thiadiazol-2-yl)-5-(4-propan-2-ylphenyl)pyrrolidine-2,3-dione]	< 4.35
CC(C)c1ccc(C2C(C(=O)c3ccccc3)C(=O)C(=O)N2Cc2cccnc2)cc1 (centres undefined) [(4E)-4-[hydroxy(phenyl)methylene]-5-p-cumenyl-1-(3-pyridylmethyl)pyrrolidine-2,3-quinone]	4.48
COc1ccc(C2C(C(=O)c3ccccc3)C(=O)C(=O)N2CCCn2ccnc2)c(OC)c1 (centres undefined) [(4E)-5-(2,4-dimethoxyphenyl)-1-(3-imidazol-1-ylpropyl)-4-[oxidanyl(phenyl)methylidene]pyrrolidine-2,3-dione]	5.47
COc1ccc(C2C(C(=O)c3ccc(C)cc3)C(=O)C(=O)N2Cc2cccnc2)c(OC)c1 (centres undefined) [(4E)-5-(2,4-dimethoxyphenyl)-4-[(4-methylphenyl)-oxidanyl-methylidene]-1-(pyridin-3-ylmethyl)pyrrolidine-2,3-dione]	4.41
COCCN1C(=O)C(=O)C(C(=O)c2ccccc2)C1c1cc(OC)ccc1OC (centres undefined) [(4E)-5-(2,5-dimethoxyphenyl)-1-(2-methoxyethyl)-4-[oxidanyl(phenyl)methylidene]pyrrolidine-2,3-dione]	5.74
COc1ccc(OC)c(C2C(C(=O)c3ccccc3)C(=O)C(=O)N2c2cccnc2)c1 (centres undefined) [(4E)-5-(2,5-dimethoxyphenyl)-4-[hydroxy(phenyl)methylene]-1-(3-pyridyl)pyrrolidine-2,3-quinone]	5.22
COCCCN1C(=O)C(=O)C(C(=O)c2ccccc2)C1c1ccc(O)c(OC)c1 (centres undefined) [(4E)-5-(3-methoxy-4-oxidanyl-phenyl)-1-(3-methoxypropyl)-4-[oxidanyl(phenyl)methylidene]pyrrolidine-2,3-dione]	4.48
O=C1C(=O)N(CN2CCOCC2)C(c2ccc(Br)cc2)C1C(=O)c1ccccc1 (centres undefined) [(4E)-5-(4-bromophenyl)-1-(morpholin-4-ylmethyl)-4-[oxidanyl(phenyl)methylidene]pyrrolidine-2,3-dione]	< 4.35
O=C1NC(c2ccc(Br)cc2)C(C(=O)c2ccc(Cl)cc2)C1=O (centres undefined) [(4E)-5-(4-bromophenyl)-4-[(4-chlorophenyl)-hydroxy-methylene]pyrrolidine-2,3-quinone]	< 4.35
Cc1ccc(C(=O)C2C(=O)C(=O)N(Cc3cccnc3)C2c2ccc(Br)cc2)cc1 (centres undefined) [(4E)-5-(4-bromophenyl)-4-[(4-methylphenyl)-oxidanyl-methylidene]-1-(pyridin-3-ylmethyl)pyrrolidine-2,3-dione]	< 4.35
Cc1ccc(N2C(=O)C(=O)C(C(=O)c3ccccc3)C2c2cccc(F)c2)cc1Br (centres undefined) [(4Z)-1-(3-bromanyl-4-methyl-phenyl)-5-(3-fluorophenyl)-4-[oxidanyl(phenyl)methylidene]pyrrolidine-2,3-dione]	< 4.35
CCCCCCN1C(=O)C(=O)C(C(=O)c2ccccc2)C1c1ccc(O)c(OC)c1 (centres undefined) [(4Z)-1-hexyl-5-(3-methoxy-4-oxidanyl-phenyl)-4-[oxidanyl(phenyl)methylidene]pyrrolidine-2,3-dione]	5.33
COc1ccc(C(=O)C2C(=O)C(=O)NC2c2ccc(OC)cc2OC)cc1 (centres undefined) [(4Z)-5-(2,4-dimethoxyphenyl)-4-[(4-methoxyphenyl)-oxidanyl-methylidene]pyrrolidine-2,3-dione]	< 4.35
CCCCCCOc1cccc(N2C(=O)C(=O)C(C(=O)c3ccccc3)C2c2cccc(F)c2)c1 (centres undefined) [(4Z)-5-(3-fluorophenyl)-1-(3-hexoxyphenyl)-4-[hydroxy(phenyl)methylene]pyrrolidine-2,3-quinone]	< 4.35
O=C1C(=O)N(c2ccc(F)cc2)C(c2ccc(Br)cc2)C1C(=O)c1ccccc1 (centres undefined) [(4Z)-5-(4-bromophenyl)-1-(4-fluorophenyl)-4-[hydroxy(phenyl)methylene]pyrrolidine-2,3-quinone]	< 4.35
N#Cc1c(N=C(CC(=O)c2ccccc2)C(=O)O)sc2c1CCC2 [(Z)-2-[(3-cyano-5,6-dihydro-4H-cyclopenta[b]thiophen-2-yl)amino]-4-keto-4-phenyl-but-2-enoic acid]	< 4.35
